Results taken from ChEMBL document CHEMBL2029316, “Linker-based hemisuccinate derivatives of artemisinin: synthesis and antimalarial assessment against multidrug-resistant Plasmodium yoelii nigeriensis in mice” (J Med Chem, 2012).
Calls of active or inactive are those of the source. No cut-off for these calls is given here.

Assays:
[1] = tested on: Plasmodium yoelii nigeriensis; assay: Antimalarial activity against chloroquine-, mefloquine-, halofantrine-resistant Plasmodium yoelii nigeriensis blood stream schizonts infected in Swiss mouse assessed as suppression of parasitemia at 48 mg/kg, im administered once daily for 4 days relative to control; format: functional; conditions: route intramuscular
[2] = tested on: Plasmodium yoelii nigeriensis; assay: Antimalarial activity against chloroquine-, mefloquine-, halofantrine-resistant Plasmodium yoelii nigeriensis blood stream schizonts infected in Swiss mouse assessed as disease cured mouse at 48 mg/kg, im administered once daily for 4 days measured on day 28; format: functional, organism-based; design: dose 48 mg/kg
[3] = Lipophilicity, log P of the compound; format: physicochemical; conditions: octanol/water
[4] = tested on: Plasmodium yoelii nigeriensis; assay: Antimalarial activity against chloroquine-, mefloquine-, halofantrine-resistant Plasmodium yoelii nigeriensis blood stream schizonts infected in Swiss mouse assessed as suppression of parasitemia at 24 mg/kg, im administered once daily for 4 days relative to control; format: functional; conditions: route intramuscular
[5] = tested on: Plasmodium yoelii nigeriensis; assay: Antimalarial activity against chloroquine-, mefloquine-, halofantrine-resistant Plasmodium yoelii nigeriensis blood stream schizonts infected in Swiss mouse assessed as suppression of parasitemia at 12 mg/kg, im administered once daily for 4 days relative to control; format: functional; conditions: route intramuscular
[6] = tested on: Plasmodium yoelii nigeriensis; assay: Antimalarial activity against chloroquine-, mefloquine-, halofantrine-resistant Plasmodium yoelii nigeriensis blood stream schizonts infected in Swiss mouse assessed as disease cured mouse at 24 mg/kg, im administered once daily for 4 days measured on day 28; format: functional, organism-based; design: dose 24 mg/kg
[7] = tested on: Plasmodium yoelii nigeriensis; assay: Antimalarial activity against chloroquine-, mefloquine-, halofantrine-resistant Plasmodium yoelii nigeriensis blood stream schizonts infected in Swiss mouse assessed as disease cured mouse at 12 mg/kg, im administered once daily for 4 days measured on day 28; format: functional, organism-based; design: dose 12 mg/kg
[8] = tested on: Plasmodium yoelii nigeriensis; assay: Antimalarial activity against chloroquine-, mefloquine-, halofantrine-resistant Plasmodium yoelii nigeriensis blood stream schizonts infected in Swiss mouse assessed as suppression of parasitemia at 6 mg/kg, im administered once daily for 4 days relative to control; format: functional; conditions: route intramuscular
[9] = tested on: Plasmodium yoelii nigeriensis; assay: Antimalarial activity against chloroquine-, mefloquine-, halofantrine-resistant Plasmodium yoelii nigeriensis blood stream schizonts infected in Swiss mouse assessed as suppression of parasitemia at 3 mg/kg, im administered once daily for 4 days relative to control; format: functional; conditions: route intramuscular
[10] = tested on: Plasmodium yoelii nigeriensis; assay: Antimalarial activity against chloroquine-, mefloquine-, halofantrine-resistant Plasmodium yoelii nigeriensis blood stream schizonts infected in Swiss mouse assessed as disease cured mouse at 6 mg/kg, im administered once daily for 4 days measured on day 28; format: functional, organism-based; design: dose 6 mg/kg
[11] = tested on: Plasmodium yoelii nigeriensis; assay: Antimalarial activity against chloroquine-, mefloquine-, halofantrine-resistant Plasmodium yoelii nigeriensis blood stream schizonts infected in Swiss mouse assessed as disease cured mouse at 3 mg/kg, im administered once daily for 4 days measured on day 28; format: functional, organism-based; design: dose 3 mg/kg
[12] = tested on: Plasmodium yoelii nigeriensis; assay: Antimalarial activity against chloroquine-, mefloquine-, halofantrine-resistant Plasmodium yoelii nigeriensis infected in Swiss mouse assessed as protection from infection at 3 to 48 mg/kg, im administered once daily for 4 days measured on day 28 relative to artesunic acid; format: functional; conditions: dose mg/kg 3-48; route intramuscular
[13] = Drug degradation in aqueous NaHCO3 under ambient temperature within 48 hrs; format: physicochemical; conditions: buffer
[14] = Drug degradation in aqueous Na2CO3 under ambient temperature within 48 hrs; format: physicochemical; conditions: buffer

Structure (SMILES)	Activity [1]	Activity [2]	logP [3]	Activity [4]	Activity [5]	Activity [6]	Activity [7]	Activity [8]	Activity [9]	Activity [10]	Activity [11]	fold change (FC) [12]	Drug degradation [13]	Drug degradation [14]
C[C@H]1[C@@H](OCCOCCOCCOCCOC(=O)CCC(=O)O)O[C@@H]2O[C@@]3(C)CC[C@H]4[C@H](C)CC[C@@H]1[C@@]24OO3	97%	inactive	2.42											
C[C@H]1[C@@H](OCCCCOC(=O)CCC(=O)O)O[C@@H]2O[C@@]3(C)CC[C@H]4[C@H](C)CC[C@@H]1[C@@]24OO3	100%		3.45											
C[C@H]1[C@@H](OCCOCCOCCOC(=O)CCC(=O)O)O[C@@H]2O[C@@]3(C)CC[C@H]4[C@H](C)CC[C@@H]1[C@@]24OO3	92%		2.54											
C[C@H]1[C@@H](OCCOCCOCCO)O[C@@H]2O[C@@]3(C)CC[C@H]4[C@H](C)CC[C@@H]1[C@@]24OO3	100%		2.68	100%	100%	inactive	inactive							
C[C@H]1[C@@H](OCCOCCOCCOCCO)O[C@@H]2O[C@@]3(C)CC[C@H]4[C@H](C)CC[C@@H]1[C@@]24OO3	100%		2.52	100%	100%	inactive	inactive							
C[C@H]1[C@@H](OCCCCCCCCCCCCO)O[C@@H]2O[C@@]3(C)CC[C@H]4[C@H](C)CC[C@@H]1[C@@]24OO3	100%		6.89	100%		inactive								
C[C@H]1[C@@H](OCCCCO)O[C@@H]2OC3(C)CC[C@H]4[C@H](C)CC[C@@H]1[C@@]24OO3	100%	Active	3.55	100%	100%	Active	Active	100%	98.3%					
C[C@H]1[C@@H](OCCCCCCCCCOC(=O)CCC(=O)O)O[C@@H]2O[C@@]3(C)CC[C@H]4[C@H](C)CC[C@@H]1[C@@]24OO3 (mixture of isomers)	100%	Active	5.53	93.09%	67.27%	inactive	inactive							
CCO[C@H]1O[C@@H]2O[C@@]3(C)CC[C@H]4[C@H](C)CC[C@@H]([C@H]1C)[C@@]24OO3 [ARTEMOTIL]								100%	100%	Active	inactive			
C[C@H]1[C@@H](OCCCCCCCCCCCCOC(=O)CCC(=O)O)O[C@@H]2O[C@@]3(C)CC[C@H]4[C@H](C)CC[C@@H]1[C@@]24OO3	100%	Active	6.78	100%	71.27%	Active	inactive	57.09%		inactive		2		
C[C@H]1[C@@H](OCCCOC(=O)CCC(=O)O)O[C@@H]2O[C@@]3(C)CC[C@H]4[C@H](C)CC[C@@H]1[C@@]24OO3	100%	inactive	2.99											
C[C@H]1[C@@H](OCCCCCCO)O[C@@H]2O[C@@]3(C)CC[C@H]4[C@H](C)CC[C@@H]1[C@@]24OO3	100%	Active	4.38	100%	100%	Active	Active	100%	100%		inactive			
C[C@H]1[C@@H](OCCCCCO)O[C@@H]2O[C@@]3(C)CC[C@H]4[C@H](C)CC[C@@H]1[C@@]24OO3	100%	Active	3.97	100%	100%	Active	Active	100%						
C[C@H]1[C@H](OC(=O)CCC(=O)O)O[C@@H]2O[C@@]3(C)CC[C@H]4[C@H](C)CC[C@@H]1[C@@]24OO3 [ARTESUNATE]	100%	Active		100%	96.36%	inactive	inactive						Active	Active
C[C@H]1[C@@H](OCCCCCCOC(=O)CCC(=O)O)O[C@@H]2O[C@@]3(C)CC[C@H]4[C@H](C)CC[C@@H]1[C@@]24OO3	98.55%	inactive	4.28											
C[C@H]1[C@@H](OCCCCCCCCO)O[C@@H]2O[C@@]3(C)CC[C@H]4[C@H](C)CC[C@@H]1[C@@]24OO3	100%	Active	5.22	100%	100%	Active	Active	100%						
C[C@H]1[C@@H](OCCCO)O[C@@H]2O[C@@]3(C)CC[C@H]4[C@H](C)CC[C@@H]1[C@@]24OO3	100%	Active	3.1	100%	100%	Active		100%	98.3%		inactive			
C[C@H]1[C@@H](OCCCCCOC(=O)CCC(=O)O)O[C@@H]2O[C@@]3(C)CC[C@H]4[C@H](C)CC[C@@H]1[C@@]24OO3	94.91%	inactive	3.86	92.73%		inactive								
C[C@H]1[C@@H](OCCOC(=O)CCC(=O)O)O[C@@H]2O[C@@]3(C)CC[C@H]4[C@H](C)CC[C@@H]1[C@@]24OO3	100%	inactive	2.89											
C[C@H]1[C@@H](OCCCCCCCCCCO)O[C@@H]2O[C@@]3(C)CC[C@H]4[C@H](C)CC[C@@H]1[C@@]24OO3	100%	Active	6.05	100%	100%		inactive	100%		inactive				
C[C@H]1[C@@H](OCCO)O[C@@H]2O[C@@]3(C)CC[C@H]4[C@H](C)CC[C@@H]1[C@@]24OO3	100%	Active	2.99	100%	100%	Active		100%						
C[C@H]1[C@@H](OCCCCCCCCCCOC(=O)CCC(=O)O)O[C@@H]2O[C@@]3(C)CC[C@H]4[C@H](C)CC[C@@H]1[C@@]24OO3	100%	Active	5.95	100%	98.18%		inactive						Not Active	Not Active
C[C@H]1[C@@H](OCCOCCO)O[C@@H]2O[C@@]3(C)CC[C@H]4[C@H](C)CC[C@@H]1[C@@]24OO3	100%	Active	2.83	100%	100%	Active		100%		inactive				
C[C@H]1[C@@H](OCCOCCOC(=O)CCC(=O)O)O[C@@H]2O[C@@]3(C)CC[C@H]4[C@H](C)CC[C@@H]1[C@@]24OO3	100%		2.73											
C[C@H]1[C@@H](OCCCCCCCCOC(=O)CCC(=O)O)O[C@@H]2O[C@@]3(C)CC[C@H]4[C@H](C)CC[C@@H]1[C@@]24OO3	100%	Active	5.12	100%	100%	Active	inactive					2		
